Entries after “also recorded” stand apart in the source; their conditions may differ. Like-named read-outs stand apart in the source and are kept apart here. Where a SMILES comes first, the peptide text is derived from it. [ ]: non-standard residue; d: D form.
Columns and labels:
U87MG cells [1] = test: In vitro cell affinity test (flow cytometry); type: cell-based, human; settings: rhodamine-labeled peptides, FIG. 1
Protocol: The human malignant glioma cells (U87MG) and the human breast cancer cells (MDA-MB-231) were cultured in a 6-well plate for 12 hours. Then, 100 μL of a polypeptide fluorescent probe labeled with rhodamine B (final concentration 250 μM) was added and co-incubated for 2 hours with gently shaking on a shaker at 37° C. Next, the cells were digested with 0.05% trypsin and washed off from the 6-wells plate. The cells were re-suspended in 1 mL PBS buffer (pH 7.2), and centrifuged (3500 r, 5 min). The supernatant was aspirated and discarded. The pellet was washed twice with a PBS buffer (pH7.2). After washing, the cells were re-suspended in a PBS buffer (pH 7.2). The mean fluorescence intensity (MFI) of the cells was quantified by using a flow cytometer. The higher the fluorescence intensity is, the greater the affinity for the cells will be. When the probe has a high affinity for the receptor on the cells, the cells have a high value of MFI measured by the flow cytometer. […] The dye used as a blank has a MFI of 25.

MCF-7 cells = test: In vitro cellular uptake assay (laser confocal microscopy); type: cell-based, human; settings: MCF-7, 500 μmol/L, 2-hour incubation at 37° C., FIG. 4
Protocol: (§1) The cultured human glioma cells U87MG, human breast cancer cells MDA-MB-231, human breast cancer cells MCF-7 and normal liver cells L02 were transferred to a confocal dish respectively, and incubated overnight. Then, the rhodamine B-labeled pentapeptide was added at the same concentration (500 μmol/L). The cyclic RGD labeled with the rhodamine B is added and used as a positive control. After 2-hour incubation at 37° C., the cells were stained with 12 μg/mL of the nuclear staining reagent Hochest 33342. Finally, the intracellular uptake of the probe was observed under a laser confocal microscope.

MDA-MB-231 cells = test: as above; type: cell-based, human; settings: MDA-MB-231, 500 μmol/L, 2-hour incubation at 37° C., FIG. 3
Protocol: as §1

U87MG cells [2] = test: as above; type: cell-based, human; settings: 500 μmol/L, 2-hour incubation at 37° C., FIG. 3
Protocol: as §1

L02 cells = test: as above; type: cell-based; settings: L02, 500 μmol/L, 2-hour incubation at 37° C., FIG. 4
Protocol: as §1

[3] = In vitro cellular cytotoxicity assay; type: cell-based; settings: human
Protocol: When the U87MG cells, MCF-7 cells and normal liver cells L02 were grown to 90% confluent or higher, the cells were digested with 0.25% trypsin and then suspended in a complete growth medium to obtain a single cell suspension. The cells were plated at a density of 3000 cells/well in a 96-well plate, and cultured at 37° C. in an incubator containing 5% CO2. After 24-hour incubation, the medium was changed to a low-serum culture medium supplemented with 1% FBS. Then, the pentapeptide was added at different concentration gradients, to achieve a final concentration of 2.5, 5, 10, 20, 40, 80, 100 and 200 μM.

Structure (SMILES): CSCC[C@H](NC(=O)[C@H](CC(N)=O)NC(=O)[C@@H](CCCNC(=N)N)NC(=O)[C@H](Cc1c[nH]c2ccccc12)NC(=O)[C@@H](N)CCCNC(=N)N)C(N)=O [pentapeptide, Arg-Trp-Arg-Asn-Met] (H-RW[dR]NM-NH2; N-terminus and C-terminus assumed)
- affinity for U87 cells (comparison in words) (U87MG cells [1]): greatest affinity
- intracellular uptake of the probe (fluorescence intensity) (MCF-7 cells): poor affinity and low
- intracellular uptake of the probe (fluorescence intensity) (MDA-MB-231 cells): strong ability to uptake; also recorded: strong fluorescence intensity
- intracellular uptake of the probe (fluorescence intensity) (U87MG cells [2]): strong ability to uptake; also recorded: strong fluorescence intensity
- intracellular uptake of the probe (fluorescence intensity) (L02 cells): poor affinity and low
- viability ([3]; MCF-7 cells, MCF-7, pentapeptide 2.5-200 μM, FIG. 6, read-out: cell survival rate): ≥ 80%
- viability ([3]; U87MG cells, pentapeptide 2.5-200 μM, FIG. 6, read-out: cell survival rate): ≥ 80%
- viability ([3]; normal liver cells L02, L02, pentapeptide 2.5-200 μM, FIG. 6, read-out: cell survival rate): ≥ 80%
